Measured values reported in patent US20090117653A1 (Governors of the University of Alberta, priority 2007, published 2009).

Legend:
Assay type in all cases: cell-based, human
[1] = tested on: clonotypic MM cells in rBM (MM BMC); experiment: Reduction of clonal cells in 3-D rBM culture, RQ-PCR with patient specific primers; details: rBM grown 14 days, single treatment 7 days, 7 days recovery
Description: (§1) For preclinical studies, the rBM was grown for 14 days to allow for stratification of the culture and expansion of the malignant cells and the stromal layer. A single treatment of either melphalan or bortezomib was administered in a fresh aliquot of Growth Medium overlaid on top of the 3-D culture. After 7 days of treatment, fresh medium was added and cells were allowed to recover for an additional period of 7 days, after which cells were isolated using the Cell Recovery Solution and the effects of treatment were analyzed, and for CFU activity of drug resistant LRC.
For real-time quantitative PCR (RQ-PCR), total genomic DNA was isolated with TRIzol™ reagent (Invitrogen, Burlington, ON) per manufacturer's instructions. […] Controls included cloned VDJ sequences for each patient used to generate a standard curve for the specific clonotypic sequence and comparison with a standard curve for a housekeeping gene, β2 microglobulin (normalized to the two copies of B2M templates/cell), to quantify the number of templates in unknown samples before and after 3-D culture. […]
FIG. 4a illustrates the reduction of the clonal cells as measured by RQ-PCR with patient specific primers (melphalan p=0.016, bortezomib p=0.39). […] Treatment of rBM with melphalan led to a 60% decrease in the number of clonotypic cells as measured by RQ-PCR.

[2] = tested on: rBM cells (MM BMC); CD138+/CD56+ population; experiment: Apoptosis within rBM by flow cytometry measuring AnnexinV reactivity
Description: as §1
For flow cytometry, cells were isolated from 3-D cultures with Cell Recovery Solution, stained with various FITC tagged CD antigens or Annexin V-PE and analyzed by flow cytometry to measure the extent of proliferation and apoptosis using a FACSort flow cytometer (BD, Oakville, ON). Data was analyzed with CellQuest Pro software.
FIGS. 4a-d illustrate a comparative evaluation of two MM therapeutics in a 3-D BM cell culture assembly in accordance with various embodiments. […]
FIG. 4b illustrates apoptosis within rBM as assessed by flow cytometry measuring AnnexinV reactivity post treatment with melphalan (left panel) or bortezomib (middle panel). MM specific cell killing by bortezomib was monitored in the CD138+/CD56+ population by AnnexinV reactivity (right panel).

LRCs (putative MM-CSC) = experiment: Persistence of label retaining cells (LRC) in melphalan treated 3-D cultures of mobilized blood cells, CFSE flow cytometry; details: mobilized blood mononuclear cells, 14 days in 3-D, then treated
Description: In the embodiments illustrated in FIGS. 1-7, 3-D cell culture and other techniques were performed. BMC were isolated from BM aspirates by Ficoll-Paque gradient centrifugation per manufacturer's instructions. Surface coating (rEnd) was created by incubating tissue culture plates with fibronectin/collagen I (1:1) in PBS at a final concentration of 5 μg/1 cm^2 of each protein. Plates were incubated for <30 min at room temperature (RT) and the remaining fluid was removed and was replaced with the rBM layer consisting of the BMC cells in an ECM mixture of Matrigel™/fibronectin (2:1 v/v). For analysis of proliferation and LRCs, cells were labeled with 0.25 μM CFSE for 15 min at 40° C. […]
For CFU assays, CFSE labeled cells were isolated from the 3-D culture and the CFSE+ cells were sorted on an EPICS ALTRA cell sorter, by gating on the live cells based on the forward and side scatter and on the CFSE+ population based on fluorescence intensity in the FL1 channel (see FIG. 6a, below). […] The MethoCult™ cultures were incubated for 14 days and the resulting colonies were counted. […]
FIG. 6a illustrates the flow cytometry profile of the LRCs. The gate for sorting was set to isolate CFSE-high cells and the percentage of LRCs was calculated as the percent of CFSE-high cells in the live cell fraction of the 3-D culture.

[3] = tested on: stromal compartment of rBM; details: brightfield microscopy; TRAP, Oil Red, ALP staining at rEnd; FIG. 4c, 4d
Description: as §1
For microscopy, confocal z-slices were imaged on a Carl Zeiss confocal LSM 510 microscope equipped with appropriate filters and the 3D reconstruction was done using Zeiss 510 image analysis software. Quantification of LRC positioning was performed with Imaris 3.2.2 software, Bitplane AG (Zurich, Switzerland). Stromal cells were stained with TRAP, Oil Red, Alkaline phosphatase, or Alizarin Red according to the manufacturer's instructions and imaged on Zeiss Axioskop digital microscope. For fibronectin, phalloidin and N-cadherin staining, cells were fixed with 1% neutral buffered formalin for 10 min at RT, permeabilized with 0.5% Triton X-100 and non-specific binding was blocked with 1% BSA for 1 hr at RT. […]

SMILES | reduction in clonotypic cells (in words) ([1]; FIG. 4a, p=0.39) | apoptosis in CD138+CD56+ PC population (AnnexinV reactivity) ([2]; CD138+/CD56+ population, FIG. 4b right panel) | depletion in 3-D of other hematopoietic cells (LRCs (putative MM-CSC)) | enrichment of LRCs in treated 3-D cultures (LRCs (putative MM-CSC); CFSE labeled, FIG. 6a) | decrease in the number of clonotypic cells as measured by RQ-PCR ([1]; p=0.016) | effect on stromal compartment of rBM [3] | apoptosis in rBM (AnnexinV reactivity) ([2]; overall rBM, post treatment, FIG. 4b, 4c)
CC(C)C[C@H](NC(=O)[C@H](Cc1ccccc1)NC(=O)c1cnccn1)B(O)O [bortezomib] | neither a significant reduction in clonotypic cells | the only cell population subject to bortezomib induced apoptosis | – | – | – | – | –
N[C@@H](Cc1ccc(N(CCCl)CCCl)cc1)C(=O)O [melphalan] | – | – | ≥ 50% | 50% | 60% | remained intact | induced apoptosis of all cell types within the hematopoietic hierarchy
